Results: patent US7270824B2, “Citrullinylarginine dipeptide analogs and their dermatological uses as care and treatment agents” (Exsymol S.A.M., priority 2002, dated 2007)
Non-standard residues stand in square brackets, D forms with d. Residues, ends and D or L forms follow the SMILES beside them. Cit = NC(=O)NCCC[C@H](N)C(=O)O

Key:
cultured fibroblasts = assay: Test 1: ATP dosage, energetic metabolism of cultured fibroblasts; type: cell-based; conditions: 1% active ingredient; fibroblasts 10^5 cells/ml, 2% fetal calf serum; control 26.7 +/- 5.2
Description: Test 1: influence of analogs of the citrullinylarginine natural dipeptide on the energetic metabolism of cultured fibroblasts through a triphosphate adenosine (ATP) dosage. Comparison with the purified natural dipeptide.
The fibroblasts cells are cultivated and seeded at a rate of 10^5 cells/ml in the presence of a growth factor-deprived medium (2% fetal calf serum).
On each cell suspension, the ATP quantity is measured by photometry, by establishing the decrease of absorbance at 340 nm according to following specific equations: • ATP+3-phosphoglycérate---->ADP+1,3-diphosphoglycérate • 1,3-diphosphoglycérate+NADH---->glycéraldéhyde-3-P+NAD+P

[1] = tested on: human fibroblast cell line; assay: Test 2: cell proliferation (cytostimulation), neutral red colorimetric test; type: cell-based; conditions: human fibroblasts, 2% fetal calf serum, OD 540 nm
Description: Test 2: evidence of the cytostimulating properties of the citrullinylarginine natural dipeptide analogs.
The test was performed on a human fibroblast cell line maintained in a culture medium filed with 2% fetal calf serum.
The assessment of the cell proliferation is carried out through a neutral red colorimetric test (Borenfreund E. and al. (1984), Toxicol. Lett., vol.24, pp.119). Cell growth variation is then obtained by measuring optical density (OD) at 540 nm, following the specific equation: […]

Row | SMILES | ATP quantity (cultured fibroblasts) | % stimulation ([1]; 0.016% active) | % stimulation ([1]; 0.031% active) | % stimulation ([1]; 0.063% active) | % stimulation ([1]; 0.125% active) | % stimulation ([1]; 0.5% active)
1 | CC(=O)N[C@@H](CCCNC(N)=O)C(=O)N[C@@H](CCCNC(=N)N)C(=O)O [NAc-Cit-Arg, N-acetyl-L-citrullinyl-L-arginine] (Ac-[Cit]-Arg-OH) | 90.7 +/− 6.5 nM/mg proteins | 5% | 26% | 34% | 40% | 45%
2 | N=C(N)NCCC[C@H](NC(=O)[C@@H](N)CCCNC(N)=O)C(=O)O [purified Cit-Arg, citrullinylarginine] (H-[Cit]-Arg-OH) | 88.62 +/− 8 nM/mg proteins | 2% | 25% | 30% | 32.5% | 36%
